Laboratory results as given in patent US5789434A, “Derivatives of substituted 4-biarylbutyric acid as matrix metalloprotease inhibitors” (priority 1995, dated 1998).

Tests used:
[1] = molecular target: T1, MMP-3 (Homo sapiens, UniProt P08254); test: Primary Thiopeptilide MMP-3 Inhibition Assay; format: biochemical; settings: for inhibition at 5 µM: read-out: MMP-3 Thiopep. % inhibition; for IC50: pH 6.5, 13 nM stromelysin, x (n) = average of n determinations, read-out: MMP-3 Thiopep. IC50
T1 construct: Truncated Prostromelysin-257 was expressed in a soluble form in E.coli; made in house; host or cells: E. coli
T1 sequence (P08254 100-274 limits assumed): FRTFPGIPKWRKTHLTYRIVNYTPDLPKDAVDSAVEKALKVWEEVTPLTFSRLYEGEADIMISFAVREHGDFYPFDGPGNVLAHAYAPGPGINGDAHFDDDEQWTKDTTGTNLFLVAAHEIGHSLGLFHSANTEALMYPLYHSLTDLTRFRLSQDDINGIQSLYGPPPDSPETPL

[2] = molecular target: T2, MMP-9 (Homo sapiens, UniProt P14780); test: Thiopeptilide MMP-9 Inhibition Assay; format: biochemical; settings: for inhibition at 5 µM: read-out: MMP-9: Thiopep. % inhibition; for IC50: pH 6.5, x (n) = average of n determinations, read-out: MMP-9: Thiopep. IC50
T2 construct: from tissue; host or cells: human polymorphonuclear leukocytes (PMN) from whole blood (New York Blood Center), PMA-stimulated supernatant
T2 sequence (P14780 107-707 limits assumed): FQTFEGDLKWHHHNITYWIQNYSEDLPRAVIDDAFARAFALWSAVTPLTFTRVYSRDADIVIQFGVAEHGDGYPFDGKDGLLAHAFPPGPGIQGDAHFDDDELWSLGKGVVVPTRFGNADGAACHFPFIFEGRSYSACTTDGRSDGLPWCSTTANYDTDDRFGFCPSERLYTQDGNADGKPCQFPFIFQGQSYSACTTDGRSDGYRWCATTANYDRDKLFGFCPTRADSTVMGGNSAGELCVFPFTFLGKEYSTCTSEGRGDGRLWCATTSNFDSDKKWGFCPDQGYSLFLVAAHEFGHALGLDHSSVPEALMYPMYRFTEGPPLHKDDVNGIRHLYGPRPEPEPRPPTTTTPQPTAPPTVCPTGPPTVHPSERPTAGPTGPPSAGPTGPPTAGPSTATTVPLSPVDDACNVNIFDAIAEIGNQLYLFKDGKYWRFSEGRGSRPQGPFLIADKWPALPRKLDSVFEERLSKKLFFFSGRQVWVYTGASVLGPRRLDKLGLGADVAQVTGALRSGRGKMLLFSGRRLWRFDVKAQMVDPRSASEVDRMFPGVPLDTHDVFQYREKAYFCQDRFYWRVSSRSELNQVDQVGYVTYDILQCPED

SMILES	inhibition at 5 µM ([1]; at 5 μM) [%]	inhibition at 5 µM [2] [%]	IC50 [1] [µM]	IC50 [2] [µM]	MMP-3 Thiopep. % inhibition ([1]; at 5 μM) [%]
CC(C)CC(CC(=O)O)C(=O)c1ccc(-c2ccc(Cl)cc2)cc1 (single isomer, unassigned) [Example 5, 5-methyl-3-[oxo-(4'-chloro-4-biphenyl)methyl]hexanoic acid]	11	19	–	–	–
CC(C)(C)C(=O)SCC(CC(=O)c1ccc(-c2ccc(Cl)cc2)cc1)C(=O)O (single isomer, unassigned) [Example 195, [1,1'-Biphenyl]-4-butanoic acid, 4'-chloro-α-[[(2,2-dimethyl-1-oxopropyl)thio]methyl]-γ-oxo-]	31	20	–	–	–
CC(C)C[C@@H](CC(=O)c1ccc(-c2ccc(Cl)cc2)cc1)C(=O)O [Example 2, [1,1'-Biphenyl]-4-butanoic acid, 4'-chloro-α-(2-methylpropyl)-γ-oxo-, (S)-]	–	–	0.27	2.2	–
O=C(O)CCC(=O)c1ccc(-c2ccc(Br)cc2)cc1 [Example 7, [1,1'-Biphenyl]-4-butanoic acid, 4'-bromo-γ-oxo-, reference compound]	–	–	0.69	2.1	–
O=C(O)CCC(=O)c1ccc(-c2ccccc2F)cc1 [Example 9, [1,1'-Biphenyl]-4-butanoic acid, 2'-fluoro-γ-oxo-, reference compound]	0	3	–	–	–
O=C(O)CCC(=O)c1ccc(-c2ccc(F)cc2F)cc1 [Example 11, [1,1'-Biphenyl]-4-butanoic acid, 2',4'-difluoro-γ-oxo-, reference compound]	14	0	–	–	–
O=C(O)CCC(=O)c1ccc(-c2cccc(Cl)c2)cc1 [Example 12, [1,1'-Biphenyl]-4-butanoic acid, 3'-chloro-γ-oxo-, reference compound]	17	0	–	–	–
CC(C)CC(CC(=O)c1ccc(-c2ccc(F)cc2F)cc1)C(=O)O (stereo not drawn) [Example 20, [1,1'-Biphenyl]-4-butanoic acid, 2',4'-difluoro-α-(2-methylpropyl)-γ-oxo-]	32	34	–	–	–
Cc1ccc(-c2ccc(C(=O)CC(CC(C)C)C(=O)O)cc2)cc1 (stereo not drawn) [Example 21, [1,1'-Biphenyl]-4-butanoic acid, 4'-methyl-α-(2-methylpropyl)-γ-oxo-]	–	–	0.75	1.2	–
CCCCCc1ccc(-c2ccc(C(=O)CC(CC(C)C)C(=O)O)cc2)cc1 (stereo not drawn) [Example 22, [1,1'-Biphenyl]-4-butanoic acid, α-(2-methylpropyl)-γ-oxo-4'-pentyl-]	–	–	0.79	1.2	–
C=C(CC(=O)c1ccc(C)cc1)C(=O)O [Example 28, Benzenebutanoic acid, 4-methyl-α-methylene-γ-oxo-, reference compound]	14	0	–	–	–
C=C(CC(=O)O)C(=O)c1ccc(-c2ccc(Cl)cc2)cc1 [Example 32, [1,1'-Biphenyl]-4-butanoic acid, 4'-chloro-β-methylene-γ-oxo-, reference compound]	58	–	–	6	–

Other lines, results leading:

inhibition at 5 µM ([1]; at 5 μM) [%]	inhibition at 5 µM [2] [%]	IC50 [1] [µM]	IC50 [2] [µM]	MMP-3 Thiopep. % inhibition ([1]; at 5 μM) [%]	SMILES
15	18	–	–	–	O=C(O)[C@H]1C2CCC(CC2)[C@@H]1C(=O)c1ccc(-c2ccc(Cl)cc2)cc1 (relative stereo) [Example 331, Bicyclo[2.2.2]octane-2-carboxylic acid, 3-[(4'-chloro[1,1'-biphenyl]-4-yl)carbonyl]-, trans-]
13	0	–	–	–	CC(C)C[C@H](CC(=O)c1ccc(-c2ccc(Cl)cc2)cc1)C(=O)O [Example 3, [1,1'-Biphenyl]-4-butanoic acid, 4'-chloro-α-(2-methylpropyl)-γ-oxo-, (R)-]
–	38	2.1	–	–	O=C(O)CCC(=O)c1ccc(-c2ccc(Cl)cc2)cc1 [Example 6, [1,1'-Biphenyl]-4-butanoic acid, 4'-chloro-γ-oxo-, reference compound]
26	0	–	–	–	O=C(O)CCC(=O)c1ccc(-c2ccc(F)cc2)cc1 [Example 8, [1,1'-Biphenyl]-4-butanoic acid, 4'-fluoro-γ-oxo-, reference compound]
1	0	–	–	–	O=C(O)CCC(=O)c1ccc(-c2ccccc2Cl)cc1 [Example 10, [1,1'-Biphenyl]-4-butanoic acid, 2'-chloro-γ-oxo-, reference compound]
–	0	2	–	–	CC(C)CC(CC(=O)c1ccc(-c2ccc(F)cc2)cc1)C(=O)O (stereo not drawn) [Example 15, [1,1'-Biphenyl]-4-butanoic acid, 4'-fluoro-α-(2-methylpropyl)-γ-oxo-]
–	–	0.62	3.1	–	CCc1ccc(-c2ccc(C(=O)CC(CC(C)C)C(=O)O)cc2)cc1 (stereo not drawn) [Example 16, [1,1'-Biphenyl]-4-butanoic acid, 4'-ethyl-α-(2-methylpropyl)-γ-oxo-]
35	0	–	–	–	CC(C)CC(CC(=O)c1ccc(-c2ccccc2F)cc1)C(=O)O (stereo not drawn) [Example 17, [1,1'-Biphenyl]-4-butanoic acid, 2'-fluoro-α-(2-methylpropyl)-γ-oxo-]
0.3	9	–	–	–	CC(C)CC(CC(=O)c1ccc(-c2ccccc2Cl)cc1)C(=O)O (stereo not drawn) [Example 18, [1,1'-Biphenyl]-4-butanoic acid, 2'-chloro-α-(2-methylpropyl)-γ-oxo-]
–	–	0.55	1.2	–	COc1ccc(-c2ccc(C(=O)CC(CC(C)C)C(=O)O)cc2)cc1 (stereo not drawn) [Example 19, [1,1'-Biphenyl]-4-butanoic acid, 4'-methoxy-α-(2-methylpropyl)-γ-oxo-]
24	0	–	–	–	C=C(CC(=O)c1ccc(-c2ccc(Cl)cc2)cc1)C(=O)O [Example 23, [1,1'-Biphenyl]-4-butanoic acid, 4'-chloro-α-methylene-γ-oxo-, reference compound]
40	0	–	–	–	C=C(CC(=O)c1ccc(-c2ccccc2Cl)cc1)C(=O)O [Example 24, [1,1'-Biphenyl]-4-butanoic acid, 2'-chloro-α-methylene-γ-oxo-, reference compound]
11	15	–	–	–	CC(C)CC(CC(=O)c1ccc(Cl)cc1)C(=O)O (stereo not drawn) [Example 27, Benzenebutanoic acid, 4-chloro-α-(2-methylpropyl)-γ-oxo-, reference compound]
28	44	–	–	–	O=C(O)/C=C/C(=O)c1ccc(-c2ccc(Cl)cc2)cc1 [Example 29, 4-Oxo-4-(4'-chloro-4-biphenyl)but-2-enoic acid, reference compound]
8	25	–	–	–	O=C(O)/C=C/C(=O)c1ccc(Oc2ccc(Cl)cc2)cc1 [Example 30, 2-Butenoic acid, 4-[4-(4-chlorophenoxy)penyl]-4-oxo-, (E)-, reference compound]
56	29	–	–	–	CC(C)CC(CC(=O)c1ccc(-c2ccc(O)cc2)cc1)C(=O)O (stereo not drawn) [Example 31, [1,1'-Biphenyl]-4-butanoic acid, 4'-hydroxy-α-(2-methylpropyl)γ-oxo-]
–	0	–	–	0	CC(C)CC1CC(c2ccc(-c3ccc(Cl)cc3)cc2)OC1=O (stereo not shown) [Example 36, 2(3H)-Furanone, 5-(4'-chloro[1,1'-biphenyl]-4-yl)dihydro-3-(2-methylpropyl)-, reference compound]
